Experimental data: patent US20240174695A1, “Spirocycle Containing Bicyclic Heteroaryl Compounds” (Protego Biopharma, Inc., priority 2022, published 2024)

Test system: Recombinant amyloidogenic full length light chain protein WIL-FL T46L
Assay: Differential Scanning Fluorimetry Assay (thermal shift assay); further: test concentration or dose not given here
Assay type: binding
Details: Thermal Shift Protein Stability Kit (Biotium), 96-well plates; protein and compounds incubated at RT for 30 min before adding the dye
Description: Differential Scanning Fluorimetry Assay
The stabilization effects the compounds have on the immunoglobulin light chain protein were quantitively measured using a thermal shift assay. Recombinant amyloidogenic full length light chain protein WIL-FL T46L was produced in E. coli, purified, and used in the assay. The Thermal Shift Protein Stability Kit from Biotium was used and the assay was done in 96-well plates following the manufacturer's instructions. The protein and compounds were incubated at RT for 30 min before adding the dye and subjected to the thermal shift assay. The thermal stability (Tm) of each sample was then determined using standard curve fitting methods and compared to vehicle. Data are expressed as temperature shift: [Tm]compound−[Tm]vehicle.
Results • 0-0.5° C.=* • >0.5-1° C.=** • >1-1.5° C.=*** • >1.5-2.5° C.=**** • >2.5° C.=*****

Row | Compound | DSF temperature shift: [Tm]compound−[Tm]vehicle
1 | Cc1cc(OCC2(c3ccccc3)CC2)cn2nc(C(O)CN3CC4(CCN(c5ccc(Cl)nc5)CC4)NC3=O)nc12 (stereo not drawn) [Compound 41] | **** (>1.5-2.5° C.=****)
2 | Cc1cc(OCC2(c3ccccc3)CC2)cn2nc(C(O)CN3CC4(CCN(c5cc(F)ncn5)CC4)NC3=O)nc12 (stereo not drawn) [Compound 59] | **** (>1.5-2.5° C.=****)
3 | Cc1cc(OC[C@H](C)c2ccccc2)cn2nc(C(O)CN3CC4(CN(c5ccnc(O)c5)C4)NC3=O)nc12 (stereo partly drawn) [Compound 84] | ***** (>2.5° C.=*****)
4 | Cc1cc(OCC2(c3ccccc3)CC2)cn2nc(C(O)CN3CC4(CCN(c5ccnc(F)n5)CC4)NC3=O)nc12 (stereo not drawn) [Compound 44] | ***** (>2.5° C.=*****)
5 | CC[C@@]1(c2ccccc2)CCN(c2cc(C)c3nc(CCN4CC5(CCN(c6nccn7cncc67)CC5)NC4=O)nn3c2)C1 [Compound 7] | ***** (>2.5° C.=*****)
6 | Cc1cc(OC[C@H](C)c2ccccc2)cn2nc(CCN3CC4(CCN(c5ncccn5)CC4)NC3=O)nc12 [Compound 115] | **** (>1.5-2.5° C.=****)
7 | Cc1cc(N2CC[C@@](C)(c3ccccc3)C2)cn2nc(C(O)CN3CC4(CN(c5cccc(C(=O)O)n5)C4)NC3=O)nc12 (stereo partly drawn) [Compound 25] | ***** (>2.5° C.=*****)
8 | CNC(=O)c1cc(N2CCC3(CC2)CN(CC(C)(O)c2nc4c(C)cc(OC[C@H](C)c5ccccc5)cn4n2)C(=O)N3)ccn1 (stereo partly drawn) [Compound 132] | **** (>1.5-2.5° C.=****)
9 | Cc1cc(OCC2(c3ccccc3)CC2)cn2nc(C(O)CN3CC4(CCN(c5nc(F)ccc5N)CC4)NC3=O)nc12 (stereo not drawn) [Compound 53] | **** (>1.5-2.5° C.=****)
10 | Cc1cc(OC[C@H](C)c2ccccc2)cn2nc(CCN3CC4(CCN(c5ncc(F)cn5)C4)NC3=O)nc12 (stereo partly drawn) [Compound 112] | **** (>1.5-2.5° C.=****)
11 | Cc1cc(OC[C@H](C)c2ccccc2)cn2nc(C(O)CN3CC4(CN(c5ccnc(S(C)(=N)=O)c5)C4)NC3=O)nc12 (stereo partly drawn) [Compound 82] | **** (>1.5-2.5° C.=****)
12 | Cc1cc(OC[C@H](C)c2ccccc2)cn2nc(CCN3CC4(CCN(S(=O)(=O)c5cccnc5)CC4)NC3=O)nc12 [Compound 125] | **** (>1.5-2.5° C.=****)
13 | Cc1cnc(N2CCC3(CC2)CN(CCc2nc4c(C)cc(OC[C@H](C)c5ccccc5)cn4n2)C(=O)N3)s1 [Compound 129] | ***** (>2.5° C.=*****)
14 | Cc1cc(OC[C@H](C)c2ccccc2)cn2nc(CCN3CC4(CCN(c5ccnc(C(F)(F)F)c5)CC4)NC3=O)nc12 [Compound 96] | *** (>1-1.5° C.=***)
15 | Cc1cc(OC[C@H](C)c2ccccc2)cn2nc(CCN3CC4(CCN(c5nccn6ccnc56)CC4)NC3=O)nc12 [Compound 10] | ***** (>2.5° C.=*****)
16 | Cc1cc(OC[C@H](C)c2ccccc2)cn2nc(C(O)CN3CC4(CCN(c5cncnc5)CC4)NC3=O)nc12 (stereo partly drawn) [Compound 75] | **** (>1.5-2.5° C.=****)
17 | Cc1cc(F)ncc1N1CCC2(CC1)CN(CC(O)c1nc3c(C)cc(OCC4(c5ccccc5)CC4)cn3n1)C(=O)N2 (stereo not drawn) [Compound 36] | **** (>1.5-2.5° C.=****)
18 | Cc1cc(OCC2(c3ccccc3)CC2)cn2nc(C(O)CN3CC4(CCN(c5nccn6cncc56)CC4)NC3=O)nc12 (stereo not drawn) [Compound 57] | ***** (>2.5° C.=*****)
19 | Cc1nccnc1N1CCC2(CC1)CN(CCc1nc3c(C)cc(OC[C@H](C)c4ccccc4)cn3n1)C(=O)N2 [Compound 94] | **** (>1.5-2.5° C.=****)
20 | Cc1nnc(N2CCC3(CC2)CN(CCc2nc4c(C)cc(OC[C@H](C)c5ccccc5)cn4n2)C(=O)N3)s1 [Compound 122] | **** (>1.5-2.5° C.=****)
21 | Cc1cc(OC[C@H](C)c2ccccc2)cn2nc(CCN3CC4(CCN(c5nccnc5F)CC4)NC3=O)nc12 [Compound 117] | **** (>1.5-2.5° C.=****)
22 | CNC(=O)c1cc(N2CCC3(CC2)CN(Cc2nc4c(C)cc(OC[C@H](C)c5ccccc5)cn4n2)C(=O)N3)ccn1 [Compound 134] | **** (>1.5-2.5° C.=****)
23 | Cc1nc(N2CCC3(CC2)CN(CCc2nc4c(C)cc(OC[C@H](C)c5ccccc5)cn4n2)C(=O)N3)ns1 [Compound 124] | **** (>1.5-2.5° C.=****)

Row | Compound | DSF temperature shift: [Tm]compound−[Tm]vehicle
24 | Cc1cc(OC[C@H](C)c2ccccc2)cn2nc(CCN3CC4(CN(c5ncc(F)cn5)C4)NC3=O)nc12 [Compound 127] | ***** (>2.5° C.=*****)
25 | Cc1cc(OC[C@H](C)c2ccccc2)cn2nc(C(O)CN3CC4(CCN(C(=O)Cc5ncnn5C)CC4)NC3=O)nc12 (stereo partly drawn) [Compound 70] | **** (>1.5-2.5° C.=****)
26 | CC[C@]1(c2ccccc2)CCN(c2cc(C)c3nc(CCN4CC5(CCN(c6nccn7cnnc67)CC5)NC4=O)nn3c2)C1 [Compound 8] | ***** (>2.5° C.=*****)
27 | Cc1cc(OC[C@H](C)c2ccccc2)cn2nc(C(O)CN3CC4(CN(c5nccc(C(=O)O)n5)C4)NC3=O)nc12 (stereo partly drawn) [Compound 87] | ***** (>2.5° C.=*****)
28 | Cc1cc(OC[C@H](C)c2ccccc2)cn2nc(C(O)CN3CC4(CCN(C(=O)c5ncn(C)n5)CC4)NC3=O)nc12 (stereo partly drawn) [Compound 69] | **** (>1.5-2.5° C.=****)
29 | Cc1cc(OCC2(c3ccccc3)CC2)cn2nc(C(O)CN3CC4(CCN(c5ncccn5)CC4)NC3=O)nc12 (stereo not drawn) [Compound 56] | ***** (>2.5° C.=*****)
30 | Cc1cc(N2CCC(C)(c3ccccc3)C2)cn2nc(CCN3CCCC4(CCN(c5nccn6cnnc56)CC4)C3=O)nc12 (stereo in doubt) [Compound 28, (R)-9-([1,2,4]triazolo[4,3-a]pyrazin-8-yl)-2-(2-(8-methyl-6-(3-methyl-3-phenylpyrrolidin-1-yl)-[1,2,4]triazolo[1,5-a]pyridin-2-yl)ethyl)-2,9-diazaspiro[5.5]undecan-1-one] | ***** (>2.5° C.=*****)
31 | Cc1cc(N2CC[C@@](C)(c3ccccc3)C2)cn2nc(CCN3CC4(CCN(c5nccn6ccnc56)CC4)NC3=O)nc12 [Compound 3] | ***** (>2.5° C.=*****)
32 | Cc1nc(N2CCC3(CC2)CN(CCc2nc4c(C)cc(OC[C@H](C)c5ccccc5)cn4n2)C(=O)N3)no1 [Compound 123] | **** (>1.5-2.5° C.=****)
33 | CC[C@]1(c2ccccc2)CCN(c2cc(C)c3nc(CCN4CC5(CCN(c6nccn7cncc67)CC5)NC4=O)nn3c2)C1 [Compound 6] | ***** (>2.5° C.=*****)
34 | Cc1cc(N2CC[C@@](C)(c3ccccc3)C2)cn2nc(CCN3CC4(CN(c5ccnc(O)c5)C4)NC3=O)nc12 [Compound 27] | ***** (>2.5° C.=*****)
35 | Cc1cc(N2CC[C@@](C)(c3ccccc3)C2)cn2nc(C(O)CN3CC4(CN(c5cccc(O)n5)C4)NC3=O)nc12 (stereo partly drawn) [Compound 26] | ***** (>2.5° C.=*****)
36 | Cc1cc(OC[C@H](C)c2ccccc2)cn2nc(C(C)(O)CN3CC4(CCN(c5ccnc(O)c5)CC4)NC3=O)nc12 (stereo partly drawn) [Compound 67] | **** (>1.5-2.5° C.=****)
37 | Cc1cc(OCC2(c3ccccc3)CC2)cn2nc(C(O)CN3CC4(CCN(c5ccnnc5)CC4)NC3=O)nc12 (stereo not drawn) [Compound 47] | **** (>1.5-2.5° C.=****)
38 | Cc1ncc(N2CCC3(CC2)CN(CCc2nc4c(C)cc(OC[C@H](C)c5ccccc5)cn4n2)C(=O)N3)s1 [Compound 107] | **** (>1.5-2.5° C.=****)
39 | Cc1ncnc(N2CCC3(CC2)CN(CCc2nc4c(C)cc(OC[C@H](C)c5ccccc5)cn4n2)C(=O)N3)c1C [Compound 118] | **** (>1.5-2.5° C.=****)
40 | Cc1c(O)ncnc1N1CC2(CN(CC(O)c3nc4c(C)cc(OC[C@H](C)c5ccccc5)cn4n3)C(=O)N2)C1 (stereo partly drawn) [Compound 89] | ***** (>2.5° C.=*****)
41 | Cc1cc(N2CC[C@@](C)(c3ccccc3)C2)cn2nc(C(O)CN3CC4(CCN(c5nccn6ccnc56)CC4)NC3=O)nc12 (stereo partly drawn) [Compound 22] | ***** (>2.5° C.=*****)
42 | Cc1nc(F)ccc1N1CCC2(CC1)CN(CCc1nc3c(C)cc(OC[C@H](C)c4ccccc4)cn3n1)C(=O)N2 [Compound 101] | ** (>0.5-1° C.=**)
43 | Cc1cc(N2CCC(C)(c3ccccc3)C2)cn2nc(CCCN3CC4(CCN(c5nccn6ccnc56)CC4)NC3=O)nc12 (stereo not drawn) [Compound 4] | ***** (>2.5° C.=*****)
44 | COc1cc(N2CCC3(CC2)CN(CCc2nc4c(C)cc(OC[C@H](C)c5ccccc5)cn4n2)C(=O)N3)ccn1 [Compound 143] | **** (>1.5-2.5° C.=****)
45 | Cc1cc(OC[C@H](C)c2ccccc2)cn2nc(CCN3CC4(CCN(c5ncns5)CC4)NC3=O)nc12 [Compound 119] | **** (>1.5-2.5° C.=****)
